Measured values published in patent publication US10098852B2 (LAUNX BIOMEDICAL CO., LTD., priority 2014, dated 2018).
Values joined by “and” are separate entries in the source; they are usually repeats but may differ in a detail not shown here. Equal values may be shown once. Read-outs that look alike come from different tables or passages of the source.

Tests used:
[1] = system: TOV-21G (ovarian cancer cell line); assay: Cell viability analysis (WST-1), ovarian cancer cell line TOV-21G; format: cell-based; details: Homo sapiens, TOV21G
Protocol: (§1) The cell numbers were counted and reseed as 2×10^6 in cell culture plate/flask. Then, the culture medium was added to a volume of 10 ml, and the cells were cultured for 2-3 days. Then, the cells were suspended for loading into 96-well plates. The cell number was 3000/well and the volume of the culture medium was 100 μl each well.
(§2) Removing the original culture medium from 96-well plate. Then add 100 μl of commercially drug at a concentration of 10 μM per well. After 72 hours, add the diluted WST-1 reagent to the well with 100 μl/well, and the diluted WST-1 reagent was acquired from the dilution of 9:1 medium and WST-1 stock reagent. Finally, the total volume of each well was 200 μl/well. Culture the 96-well plate at 37° C. for 30 to 90 minutes. Detecting and calculate the survival rate of each cancer cells with an ELISA reader at OD450 nm.

[2] = Cell viability analysis (WST-1), normal pulmonary epithelial cell line BEAS-2B; format: cell-based; details: human, BEAS-2B normal pulmonary epithelial cells, BEAS-2B normal cells
From the text: Subculture the different types of cancer cells. The cancer cells lines includes lung cancer, gastric cancer, hepatic cancer, colon cancer, skin cancer, cervical cancer, prostate cancer, bladder cancer, breast cancer, leukemia, pancreatic cancer, ovarian cancer, tongue cancer, osteosarcoma, and renal cancer. The normal cells used in the control group included kidney cell line (HEK293) and human bronchial epithelial cell line BEAS-2B.
as §1, §2

lung cancer cell = assay: Summary of the effect on lung cancer cell (A549, H1650); format: cell-based; details: lung cancer cell (mean of A549 and H1650 averages), 72 hours, read-out: Inhibitory effect
Protocol: as §2

[3] = Cell viability analysis (WST-1), human fibroblast cell line HFW; format: cell-based; details: HFW fibroblast cells (normal)
Protocol: as §1, §2

bladder cancer cell = assay: Summary of the effect on bladder cancer cell (TSGH, T24); format: cell-based; details: bladder cancer cell (mean of TSGH and T24 averages), 72 hours, read-out: Inhibitory effect
Protocol: as §2

[4] = system: TSGH (bladder cancer cell line); assay: Cell viability analysis (WST-1), bladder cancer cell line TSGH; format: cell-based
Protocol: as §1, §2

[5] = system: MKN-45 (Gastric Adenocarcinoma); assay: Cell viability analysis (WST-1), gastric cancer cell line MKN-45; format: cell-based; details: Homo sapiens
ovarian cancer cell = assay: Summary of the effect on ovarian cancer cell (NIH-OVCAR-3, TOV-21G); format: cell-based; details: ovarian cancer cell (mean of NIH-OVCAR-3 and TOV-21G averages), 72 hours, read-out: Inhibitory effect
Protocol: as §2

[6] = system: BxPC-3 (pancreatic cancer cell line); assay: Cell viability analysis (WST-1), pancreatic cancer cell line BxPC-3; format: cell-based; details: Homo sapiens
Protocol: as §1, §2

[7] = system: PC-3 (Prostate adenocarcinoma); assay: Cell viability analysis (WST-1), prostate cancer cell line PC-3; format: cell-based; details: PC-3, 10 μM
Protocol: as §1, §2

[8] = Animal model test of gastric cancer: body weight and survival; format: in vivo, mice (BALB/cAnN.Cg-Foxn1nu/CrlNarl); details: for weight: individual mice A, B, C
Protocol: In this invention, the female mice were (BALB/cAnN.Cg-Foxn1^nu/CrlNarl) purchased from National Laboratory Animal Center (Taiwan)). The weight of the mice were 21±1 g. These mice were subcutaneously injected with gastric cancer cells (AGS) and then put these mice into different cages at random. The drug test experiment was divided into three groups, include “control group”, “low dose group (100 mg/kg/day)”, and “high dose group (200 mg/kg/day)”. These mice were then injected test drug intraperitoneally once daily […]. The tumor sizes and body weight were measured twice a week. The tumor sizes were measured and calculated by formula: (L×W^2)/2. L represents the tumor longest length. W represents the tumor shortest diameter.

breast cancer cell = assay: Summary of the effect on breast cancer cell (MCF7, MDA-MB-231); format: cell-based; details: breast cancer cell (mean of MCF7 and MDA-MB-231 averages), 72 hours, read-out: Inhibitory effect
Protocol: as §2

[9] = system: BCC (basal cell carcinoma); assay: Cell viability analysis (WST-1), skin cancer cell line BCC; format: cell-based
Protocol: as §1, §2

[10] = system: LNCap (prostate cancer cell line); assay: Cell viability analysis (WST-1), prostate cancer cell line LNCap; format: cell-based; details: Homo sapiens
Protocol: as §1, §2

[11] = 72 h, average of 4 tests, read-out: inhibition effect (survival rate of cells), average
[12] = average of 4 tests, read-out: inhibition effect (survival rate of cells), average

In the case of `Oc1ccc(OCc2ccccc2)cc1` [Monobenzone], the viability at 10 µM [1, 11] is reported as 78.4%, the viability at 10 µM ([1]; 72 hours, test 7-3-30 min, read-out: inhibition effect (survival rate of cells)) is reported as 93.9% and the viability at 10 µM ([1]; 72 hours, test 7-4-30 min, read-out: inhibition effect (survival rate of cells)) is reported as 78.4%. It also gave a viability at 10 µM ([1]; 72 hours, test 7-7-30 min, read-out: inhibition effect (survival rate of cells)) of 69.6%, a viability at 10 µM ([1]; 72 hours, test −4-30 min, read-out: inhibition effect (survival rate of cells)) of 71.6% and a viability at 72 h, 10 µM [2, 12] of 73.8%. For the same molecule, the viability at 72 h, 10 µM ([2]; test 0510-10 min, read-out: inhibition effect (survival rate of cells)) was 84.7%, the viability at 72 h, 10 µM ([2]; test 0512-10 min, read-out: inhibition effect (survival rate of cells)) was 79.5% and the viability at 72 h, 10 µM ([2]; test 0515-10 min, read-out: inhibition effect (survival rate of cells)) was 74.9%. For the same molecule, the viability at 72 h, 10 µM ([2]; test 0517-10 min, read-out: inhibition effect (survival rate of cells)) was 56.2%, the viability at 10 µM (lung cancer cell) was 89.8% and the viability at 72 h, 10 µM [3, 12] was 85.4%. The viability at 72 h, 10 µM ([3]; test 0612-10 min, read-out: inhibition effect (survival rate of cells)) was 120%, the viability at 72 h, 10 µM ([3]; test 0614-10 min, read-out: inhibition effect (survival rate of cells)) was 74.9% and the viability at 72 h, 10 µM ([3]; test 0616-10 min, read-out: inhibition effect (survival rate of cells)) was 68.1%. It also gave a viability at 72 h, 10 µM ([3]; test 0619-10 min, read-out: inhibition effect (survival rate of cells)) of 79.1%, a viability at 10 µM (bladder cancer cell) of 85.8% and a viability at 10 µM [4, 11] of 84.6%. For the same molecule, the viability at 10 µM ([4]; 72 hours, test 0510-10 min, read-out: inhibition effect (survival rate of cells)) was 90.2%, the viability at 10 µM ([4]; 72 hours, test 0512-10 min, read-out: inhibition effect (survival rate of cells)) was 92.8% and the viability at 10 µM ([4]; 72 hours, test 0515-10 min, read-out: inhibition effect (survival rate of cells)) was 83%. The viability at 10 µM ([4]; 72 hours, test 0517-10 min, read-out: inhibition effect (survival rate of cells)) was 72.5%, the viability at 10 µM ([5]; MKN-45, 72 h, MKN-45, 10 μM, average of 4 tests, read-out: inhibition effect (survival rate of cells), average) was 97.2% and the viability at 10 µM ([5]; MKN-45, MKN-45, 10 μM, 72 hours, test 0510-10 min, read-out: inhibition effect (survival rate of cells)) was 89.2%. For the same molecule, the viability at 10 µM ([5]; MKN-45, MKN-45, 10 μM, 72 hours, test 0512-10 min, read-out: inhibition effect (survival rate of cells)) was 107%, the viability at 10 µM ([5]; MKN-45, MKN-45, 10 μM, 72 hours, test 0517-10 min, read-out: inhibition effect (survival rate of cells)) was 91.3% and the viability at 10 µM (ovarian cancer cell) was 85%. It also gave a viability at 10 µM ([6]; BXPC-3, 72 h, BxPC-3, 10 μM, average of 4 tests, read-out: inhibition effect (survival rate of cells), average) of 78.6%, a viability at 10 µM ([6]; BXPC-3, BxPC-3, 10 μM, 72 hours, test 3-4-30 min, read-out: inhibition effect (survival rate of cells)) of 86.3% and a viability at 10 µM ([6]; BXPC-3, BxPC-3, 10 μM, 72 hours, test 3-7-3-30 min, read-out: inhibition effect (survival rate of cells)) of 57.4%. For the same molecule, the viability at 10 µM ([6]; BXPC-3, BxPC-3, 10 μM, 72 hours, test 3-7-4-30 min, read-out: inhibition effect (survival rate of cells)) was 100%, the viability at 10 µM ([6]; BXPC-3, BxPC-3, 10 μM, 72 hours, test 3-7-7-30 min, read-out: inhibition effect (survival rate of cells)) was 70.7% and the viability at 10 µM [7, 11] was 62.5%. For the same molecule, the viability at 10 µM ([7]; 72 hours, test PC-3-0524-10 min, read-out: inhibition effect (survival rate of cells)) was 57%, the viability at 10 µM ([7]; 72 hours, test PC-3-0526-10 min, read-out: inhibition effect (survival rate of cells)) was 70.6% and the viability at 10 µM ([7]; 72 hours, test PC-3-0529-10 min, read-out: inhibition effect (survival rate of cells)) was 63.2%. For the same molecule, the viability at 10 µM ([7]; 72 hours, test PC-3-0531-10 min, read-out: inhibition effect (survival rate of cells)) was 59%, the “health status / death of tested mice during the treatment (in words)” value ([8]; both high and low doses) was “healthy status during the treatment without death” and the “weight of mice during the experiment (in words)” value ([8]; both low dose and high dose, FIG. 2) was “did not show a significant decrease”. For the same molecule, the weight ([8]; high dose (200 mg/kg/day) i.p. once daily, Fifth measurement, 200 mg/kg/day) was 20 g (2×) and 21 g, the weight ([8]; high dose (200 mg/kg/day) i.p. once daily, First measurement, 200 mg/kg/day) was 20 g (2×) and 19.5 g and the weight ([8]; high dose (200 mg/kg/day) i.p. once daily, Fourth measurement, 200 mg/kg/day) was 20 g (2×) and 21 g. For the same molecule, the weight ([8]; high dose (200 mg/kg/day) i.p. once daily, Second measurement, 200 mg/kg/day) was 19 g (2×) and 20 g, the weight ([8]; high dose (200 mg/kg/day) i.p. once daily, Third measurement, 200 mg/kg/day) was 20.5 g and 19 g and 20 g and the weight ([8]; low dose (100 mg/kg/day) i.p. once daily, Fifth measurement, 100 mg/kg/day) was 20 g (2×) and 21 g. The weight ([8]; low dose (100 mg/kg/day) i.p. once daily, First measurement) was 21 g, the weight ([8]; low dose (100 mg/kg/day) i.p. once daily, Fourth measurement, 100 mg/kg/day) was 20 g (2×) and 21 g and the weight ([8]; low dose (100 mg/kg/day) i.p. once daily, Second measurement, 100 mg/kg/day) was 20 g (2×) and 19 g. For the same molecule, the weight ([8]; low dose (100 mg/kg/day) i.p. once daily, Third measurement, 100 mg/kg/day) was 19.5 g and 19 g and 18.5 g, the viability at 10 µM (breast cancer cell) was 87.9% and the viability at 10 µM ([9]; 72 h, average of 4 tests, read-out: inhibition effect (survival rate of cells), Average) was 50.1%. For the same molecule, the viability at 10 µM ([9]; 72 hours, test 0602-30 min, read-out: inhibition effect (survival rate of cells)) was 48.2%, the viability at 10 µM ([9]; 72 hours, test 0605-10 min, read-out: inhibition effect (survival rate of cells)) was 59.8% and the viability at 10 µM ([9]; 72 hours, test 0607-10 min, read-out: inhibition effect (survival rate of cells)) was 38.6%. It also gave a viability at 10 µM ([9]; 72 hours, test 0609-10 min, read-out: inhibition effect (survival rate of cells)) of 53.8%, a viability at 10 µM [10, 11] of 67.9% and a viability at 10 µM ([10]; 72 hours, test LNCap-1-10 min, read-out: inhibition effect (survival rate of cells)) of 65.5%. For the same molecule, the viability at 10 µM ([10]; 72 hours, test LNCap-2-20 min, read-out: inhibition effect (survival rate of cells)) was 52.7%, the viability at 10 µM ([10]; 72 hours, test LNCap-3-20 min, read-out: inhibition effect (survival rate of cells)) was 81.6% and the viability at 10 µM ([10]; 72 hours, test LNCap-4-20 min, read-out: inhibition effect (survival rate of cells)) was 71.6%.
